Reference: article PMC11091889, “Silver Organometallics that are Highly Potent Thioredoxin and Glutathione Reductase Inhibitors: Exploring the Correlations of Solution Chemistry with the Strong Antibacterial Effects” (ACS Infectious Diseases, 2024)

Tests used:
[1] = target: E. coli thioredoxin reductase (TrxR) (Escherichia coli, UniProt P0A9P4); settings: read-out: IC50 TrxR from E. coli; ± standard deviation, n = 3, 75 min preincubation
Protocol: (§2) The inhibition of purified E. coli thioredoxin reductase (TrxR) and glutathione reductase (GR) from both E. coli and baker’s yeast was determined according to a previously applied procedure.[59],[60]
(§3) The TrxR (E. coli) and GR (baker’s yeast and E. coli) inhibition assays were performed according to previously published procedures.[62],[75] The assays are partly based on the procedure developed by Lu et al.[60] and make use of the reduction of 5,5′-dithiobis(2-nitrobenzoic acid) (DTNB). Solutions of E. coli TrxR (35.4 U/mL) and E. coli thioredoxin (Trx) (156 μg/mL) (both purchased from Sigma-Aldrich) or baker’s yeast GR (0,08 U/mL, Sigma-Aldrich) or E. coli GR (4.2 U/ml, Antibodies online) and GSSG (0.28 mM, Sigma-Aldrich) in distilled water were prepared, as were fresh 2 mM stock solutions of the test compounds in DMSO. Then, solutions with several concentrations of the test compounds in DMSO were prepared, and 35 μL of each solution was diluted with 965 μL of TE buffer (Tris–HCl 50 mM, EDTA 1 mM, pH 7.5). These solutions (20 μL) or TE buffer without the test compounds (20 μL, as control) were mixed with the TrxR or GR solutions (10 μL), the Trx or GSSG solutions (10 μL), and a solution of NADPH (200 μM) in TE buffer (100 μL) in a well on a 96-well plate. As a blank solution, 200 μM NADPH in TE buffer (100 μL) mixed with a DMSO/buffer mixture (40 μL) was used (final concentrations of DMSO: 0.5% v/v). The plate was incubated for 75 min at 25 °C with moderate shaking. After incubation, 100 μL of a reaction mixture (TE buffer containing 200 μM NADPH and 5 mM DTNB) was added to each well to initiate the reaction. After thorough mixing, the formation of 5-TNB was monitored by a microplate reader at 405 nm in 35 s intervals (10 measurements). The values were corrected by subtraction of the blank solution absorption values. The increase in the concentration of 5-TNB followed a linear trend (r^2 ≥ 0.990), and the enzymatic activities were calculated as the gradients (increase in absorbance per second) thereof. […] The inhibition is presented as the mean IC50 values and standard deviations obtained in three independent experiments.

[2] = tested on: P. aeruginosa (PA 14) biofilm; assay: Inhibition of biofilm formation, crystal violet staining; assay type: cell-based, Pseudomonas aeruginosa; settings: for smallest active concentration for biofilm inhibition: concentration at which the % inhibition was found; for biofilm inhibition: ± SD, n = 4, at the respective smallest active concentration, 24 h
From the text: Silver and its complexes can strongly affect the growth of biofilms.[56]−[58] In view of the promising activity against Gram-negative bacteria as mentioned above, we evaluated the inhibiting effect of the silver complexes on biofilm production by P. aeruginosa by a method based on crystal violet staining (Table 4 and Figure S14). Complexes 3a–c and 4a–c were selected for the test based on the results of solubility, stability, and antibacterial screening. […] The lower activity of 3c might be explained by its lower kinetic solubility in the aqueous environment (see Figure 4).
The antibiofilm activity was determined according to a literature method.[73] A 1 mL aliquot of P. aeruginosa (PA 14) was taken from −20 °C stock, incubated in 25 mL LB medium (Luria–Bertani Broth) in a 250 mL flask, and kept at 37 °C at 100 rpm overnight. The optical density at 600 nm (OD600) of the culture solution was adjusted to match the turbidity of a 0.1 McFarland standard in M63 medium.[74] Selected compounds were mixed with 150 μL of bacterial solution in U-bottom 96 well plates to the final respective concentrations (25–0.2 μg/mL). The plates were further incubated at 37 °C for 24 h while shaking at 150 rpm. Afterward, the plates were rinsed once with 150 μL of PBS buffer, and the biofilms were stained using 150 μL of crystal violet (0.1%) staining at room temperature for 15 min and then rinsed once with PBS buffer. After rinsing, 150 μL of ethanol (95%) was added, and the absorbance was quantified using a plate reader (Synergy 2, BioTek, Santa Clara, USA) at 550 nm. The resulting antibiofilm activity is presented as percentage of inhibition at the respective smallest active concentration in μM with standard deviation (SD) of two repeats with duplicates. Myxovalargin A and DMSO (2.5%) were used as the positive and negative controls, respectively.

[3] = target: T1, glutathione reductase (GR) from baker's yeast (Saccharomyces cerevisiae, UniProt P41921); assay: GR inhibition assay (DTNB reduction); assay type: biochemical; settings: ± standard deviation, n = 3, 75 min preincubation
T1 construct: purchased Sigma-Aldrich
T1 sequence (P41921 17-483 limits assumed): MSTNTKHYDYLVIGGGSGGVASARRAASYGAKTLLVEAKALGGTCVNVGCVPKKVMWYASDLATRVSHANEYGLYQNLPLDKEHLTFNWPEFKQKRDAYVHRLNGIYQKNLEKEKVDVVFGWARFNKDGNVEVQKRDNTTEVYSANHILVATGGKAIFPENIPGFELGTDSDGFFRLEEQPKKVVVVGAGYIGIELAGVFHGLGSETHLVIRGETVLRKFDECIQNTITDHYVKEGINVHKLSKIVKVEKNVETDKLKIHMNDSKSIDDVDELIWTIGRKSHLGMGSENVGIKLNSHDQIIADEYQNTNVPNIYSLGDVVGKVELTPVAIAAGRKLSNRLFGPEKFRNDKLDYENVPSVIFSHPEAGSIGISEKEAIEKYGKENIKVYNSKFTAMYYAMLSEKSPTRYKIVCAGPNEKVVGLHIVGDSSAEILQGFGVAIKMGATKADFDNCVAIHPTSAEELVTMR
Protocol: as §2, §3

[4] = tested on: K. pneumoniae (DSM 11678, ATCC33495); assay: Broth microdilution antibacterial assay; assay type: cell-based, Klebsiella pneumoniae; settings: n = 3, MHB; for MIC K. pneumoniae / EC50: mean ± standard error; for MIC K. pneumoniae / MIC K. pneumoniae (value in brackets): 22 h; for EC50: read-out: EC50 K. pneumoniae
In short: (§1)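 Broth microdilution used 2–8 × 10^5 CFU/mL inocula, with compounds serially diluted 64 to 1 μg/mL and incubated 22 h at 37 °C, read at 600 nm. A. baumannii, K. pneumoniae and P. aeruginosa were grown in MHB pH 7.4; E. faecium was grown in TSY pH 7.0–7.2. MIC and EC50 were obtained by curve fitting from three independent experiments.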

[5] = tested on: A. baumannii (DSM 30007, ATCC 19606); assay: Broth microdilution antibacterial assay; assay type: cell-based, Acinetobacter baumannii; settings: n = 3, MHB; for MIC A. baumannii / EC50: mean ± standard error; for MIC A. baumannii / MIC A. baumannii (value in brackets): 22 h; for EC50: read-out: EC50 A. baumannii
In short: as §1

[6] = 25 mM in DMSO, dark, 24 h, visual inspection
Protocol: Because of the formation of black colloidal silver in the course of degradation, the solution stability of silver NHC complexes can be monitored visually and with the help of nephelometry. All synthesized complexes were dissolved at 25 mM in DMSO and kept in the dark for 24 h.
After the experiment, the DMSO stock solutions of compounds were kept away from direct light at room temperature for 24 h to monitor the stability of solutions.

Chain of E. coli thioredoxin reductase (TrxR) (P0A9P4 whole entry): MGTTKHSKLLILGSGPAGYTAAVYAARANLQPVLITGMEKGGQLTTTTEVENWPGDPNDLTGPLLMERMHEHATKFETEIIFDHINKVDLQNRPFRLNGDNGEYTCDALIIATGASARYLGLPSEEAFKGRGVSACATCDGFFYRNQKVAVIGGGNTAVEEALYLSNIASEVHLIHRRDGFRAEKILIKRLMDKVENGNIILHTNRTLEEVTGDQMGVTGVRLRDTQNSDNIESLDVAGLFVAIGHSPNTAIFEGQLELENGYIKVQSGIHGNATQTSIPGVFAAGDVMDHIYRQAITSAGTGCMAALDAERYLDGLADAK

CC(C)n1[c](=[Ag][Br])n(Cc2ccccn2)c2ccccc21 [3b, Bromido (1-Isopropyl-3-(pyridin-2-ylmethyl)-benzimidazol-2-ylidene) Silver(I)]
IC50 [1]: 0.092 ± 0.008 µM
smallest active concentration for biofilm inhibition [2]: 7.1 µM
biofilm inhibition [2]: 74 ± 5%
IC50 [3]: 0.041 ± 0.006 µM
MIC K. pneumoniae [4]: 18.2 ± 0.0 µM
EC50 [4]: 8.6 ± 0.2 µM
MIC K. pneumoniae (value in brackets) [4]: 8 µg/mL
MIC A. baumannii [5]: 15.2 ± 3.0 µM
EC50 [5]: 0.53 ± 0.14 µM
MIC A. baumannii (value in brackets) [5]: 7 µg/mL

COCCn1[c](=[Ag][I])n(Cc2ccccn2)c2ccccc21 [4c, Iodido (1-(2-Methoxyethyl)-3-(pyridin-2-ylmethyl)-benzimidazol-2-ylidene) Silver(I)]
smallest active concentration for biofilm inhibition [2]: 6.2 µM
biofilm inhibition [2]: 66 ± 6%
MIC K. pneumoniae [4]: 4.0 ± 0.0 µM
EC50 [4]: 2 µM
MIC K. pneumoniae (value in brackets) [4]: 2 µg/mL
Solution stability (signs of degradation, precipitation, silver colloid) [6]: did not show clear signs of degradation
MIC A. baumannii [5]: 9.3 ± 3.5 µM
EC50 [5]: 1.9 ± 0.1 µM
MIC A. baumannii (value in brackets) [5]: 5 µg/mL

CC(C)n1[c](=[Ag][I])n(Cc2ccccn2)c2ccccc21 [3c, Iodido (1-Isopropyl-3-(pyridin-2-ylmethyl)-benzimidazol-2-ylidene) Silver(I)]
IC50 [1]: 0.122 ± 0.015 µM
smallest active concentration for biofilm inhibition [2]: 13.0 µM
biofilm inhibition [2]: 55 ± 19%
IC50 [3]: 0.049 ± 0.004 µM
MIC K. pneumoniae [4]: 4.11 ± 0.0 µM
EC50 [4]: 2.3 ± 0.3 µM
MIC K. pneumoniae (value in brackets) [4]: 2 µg/mL
Solution stability (signs of degradation, precipitation, silver colloid) [6]: did not show clear signs of degradation
MIC A. baumannii [5]: 4.11 ± 0.0 µM
EC50 [5]: 1.9 ± 0.1 µM
MIC A. baumannii (value in brackets) [5]: 2 µg/mL

CC(C)n1[c](=[Ag][Cl])n(Cc2ccccn2)c2ccccc21 [3a, Chlorido (1-Isopropyl-3-(pyridin-2-ylmethyl)-benzimidazol-2-ylidene) Silver(I)]
IC50 [1]: 0.103 ± 0.008 µM
smallest active concentration for biofilm inhibition [2]: 7.9 µM
biofilm inhibition [2]: 71 ± 4%
IC50 [3]: 0.044 ± 0.004 µM
MIC K. pneumoniae [4]: 13.5 ± 3.4 µM
EC50 [4]: 9.8 ± 2.4 µM
MIC K. pneumoniae (value in brackets) [4]: 5 µg/mL
MIC A. baumannii [5]: 13.5 ± 3.4 µM
EC50 [5]: 1.8 ± 0.3 µM
MIC A. baumannii (value in brackets) [5]: 5 µg/mL
